Assays:
Coagulation factor X = Coagulation factor X (Homo sapiens, UniProt P00742); assay: Inhibition of factor 10a (unknown origin)
[1] = target: Urokinase-type plasminogen activator (Homo sapiens, UniProt P00749); assay: Inhibition of uPA (unknown origin)
Prothrombin = Prothrombin (Homo sapiens, UniProt P00734); assay: Inhibition of thrombin (unknown origin)
[2] = target: Tissue-type plasminogen activator (Homo sapiens, UniProt P00750); assay: Inhibition of tPA (unknown origin)
Plasminogen = Plasminogen (Homo sapiens, UniProt P00747); assay: Inhibition of plasmin (unknown origin)
Sequence of Plasminogen (P00747 97-580 limits assumed): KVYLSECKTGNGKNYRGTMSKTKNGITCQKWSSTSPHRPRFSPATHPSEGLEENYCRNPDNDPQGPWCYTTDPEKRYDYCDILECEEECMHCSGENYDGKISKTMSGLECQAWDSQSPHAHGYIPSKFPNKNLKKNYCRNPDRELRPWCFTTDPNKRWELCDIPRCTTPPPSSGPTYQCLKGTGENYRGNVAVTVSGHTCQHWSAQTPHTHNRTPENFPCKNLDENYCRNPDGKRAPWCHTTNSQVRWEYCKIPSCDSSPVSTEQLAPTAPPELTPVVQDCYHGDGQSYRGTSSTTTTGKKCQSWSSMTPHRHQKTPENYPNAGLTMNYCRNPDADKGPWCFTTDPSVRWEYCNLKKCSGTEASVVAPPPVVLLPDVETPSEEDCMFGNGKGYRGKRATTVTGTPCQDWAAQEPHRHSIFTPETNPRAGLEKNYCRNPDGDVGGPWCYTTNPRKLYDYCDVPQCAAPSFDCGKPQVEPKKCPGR
Sequence of Plasminogen (P00747 581-810 limits assumed): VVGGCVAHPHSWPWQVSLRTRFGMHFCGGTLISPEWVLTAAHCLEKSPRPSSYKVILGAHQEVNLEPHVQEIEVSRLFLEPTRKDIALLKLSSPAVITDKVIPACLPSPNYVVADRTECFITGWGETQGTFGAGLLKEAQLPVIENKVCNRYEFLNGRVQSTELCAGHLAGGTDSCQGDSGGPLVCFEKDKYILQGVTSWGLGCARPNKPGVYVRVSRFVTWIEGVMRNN

[3] = Antitumor activity against rat BN472 cells implanted in Norwegian BN rat model of orthotopical breast cancer assessed as inhibition of tumor growth at 1 mg/kg/day, sc; format: functional; conditions: read-out: TGI
[4] = Drug level in blood of mouse LLC allografted in mouse at 100 mg/kg, ip; format: ADME, organism-based; conditions: in vivo, read-out: Drug uptake
[5] = tested on: Lewis lung carcinoma cell line; assay: Antimetastatic activity against mouse LLC allografted in mouse assessed as reduction in tumor nodule numbers at 100 mg/kg, ip; format: functional; set-up: scale not given: the % may be the effect or the level left
[6] = tested on: Lewis lung carcinoma cell line; assay: Antitumor activity against mouse LLC allografted in C57Bl6/N mouse assessed as inhibition olf tumor growth at 200 mg/kg/day, ip; format: functional; conditions: read-out: TGI

Sequence of Tissue-type plasminogen activator (P00750 whole entry): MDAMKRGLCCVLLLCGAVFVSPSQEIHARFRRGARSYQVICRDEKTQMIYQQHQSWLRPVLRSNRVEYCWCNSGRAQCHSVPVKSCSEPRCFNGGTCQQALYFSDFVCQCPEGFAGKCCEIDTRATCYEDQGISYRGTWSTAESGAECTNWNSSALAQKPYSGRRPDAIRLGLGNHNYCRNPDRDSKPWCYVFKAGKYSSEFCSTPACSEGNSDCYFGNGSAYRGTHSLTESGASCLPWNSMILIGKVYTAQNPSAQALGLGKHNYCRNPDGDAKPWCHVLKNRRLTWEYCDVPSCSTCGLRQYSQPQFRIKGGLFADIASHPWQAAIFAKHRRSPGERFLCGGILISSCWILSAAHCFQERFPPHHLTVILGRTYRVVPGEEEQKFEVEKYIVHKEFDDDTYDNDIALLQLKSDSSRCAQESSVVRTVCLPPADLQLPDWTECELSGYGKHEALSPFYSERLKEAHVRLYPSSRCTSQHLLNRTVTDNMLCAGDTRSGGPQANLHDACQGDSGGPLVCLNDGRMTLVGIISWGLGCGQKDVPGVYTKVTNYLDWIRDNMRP
Sequence of Coagulation factor X (P00742 41-179 limits assumed): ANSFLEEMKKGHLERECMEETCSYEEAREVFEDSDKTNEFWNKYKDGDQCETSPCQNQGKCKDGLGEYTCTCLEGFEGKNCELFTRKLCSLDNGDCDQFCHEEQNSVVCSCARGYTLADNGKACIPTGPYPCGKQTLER
Sequence of Coagulation factor X (P00742 235-488 limits assumed): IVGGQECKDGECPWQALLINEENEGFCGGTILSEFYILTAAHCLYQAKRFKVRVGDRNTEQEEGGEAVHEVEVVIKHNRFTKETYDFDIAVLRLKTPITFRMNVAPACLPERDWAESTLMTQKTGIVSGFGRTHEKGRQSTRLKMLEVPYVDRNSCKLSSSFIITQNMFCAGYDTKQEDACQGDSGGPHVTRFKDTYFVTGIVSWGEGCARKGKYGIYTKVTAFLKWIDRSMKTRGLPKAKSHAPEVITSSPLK

For `CCOC(=O)N1CCN(C(=O)[C@H](Cc2cccc(C(=N)N)c2)NS(=O)(=O)c2c(C(C)C)cc(C(C)C)cc2C(C)C)CC1`, the Ki (Coagulation factor X) was 980 nM, the Ki [1] was 650 nM and the Ki (Prothrombin) was 500 nM. It also gave a Ki [2] of 2510 nM, a Ki (Plasminogen) of 1460 nM and an inhibition in vivo at 1 mg/kg/day [3] of 53%.
Compound `N=C(N)c1ccc(CNC(=O)[C@H](CO)NC(=O)[C@@H](CO)NS(=O)(=O)Cc2ccccc2)cc1` has a concentration [4] of 1010 µM, an Activity [5] of 41.5% and an inhibition in vivo at 200 mg/kg/day [6] of 43%.

Reference: ChEMBL document CHEMBL4422663, “Suppression of Tumor Growth and Metastases by Targeted Intervention in Urokinase Activity with Cyclic Peptides” (J Med Chem, 2019)
